Common to all, as to format: in vivo, mouse
Experiment [1] deals with DBA/2-mated CBA/J mice. Nature of the experiment: Fetal resorption in DBA/2-mated CBA/J mice, murine model of spontaneous recurrent miscarriage. The method, then:
Female mice were allowed to mate with previously isolated male mice. The groups in the present experiment comprised 7-20 animals, one group of DBA/2-mated CBA/J mice and two controls (CBA×Balb/c and Balb/c×Balb/c). After mating, the females were checked daily until the presence of a vaginal plug was confirmed (this time point was then defined as day 0.5 of pregnancy). The mice were sacrificed 15 days post-conception. Uteri were dissected and the frequency of fetal resorption was determined as the number of resorptions divided by total number of formed fetuses and resorptions. Resorption sites, resulting from the loss of a previously viable fetus, are easily identifiable by visual inspection.
Mice were mated as described above, and sacrificed on day 8.5 post-conception. Sections of decidual tissue from CBA/J×Balb/c were incubated with an antibody to mouse C3, and followed by rabbit anti-goat IgG conjugated with HRP (horseradish peroxidase) and staining.
This experiment was carried out to investigate if blockade of complement activation would prevent fetal loss in the murine model of miscarriage. In these experiments, DBA/2-mated CBA/J pregnant mice were treated with three different targeted inhibitors of complement activation.
Crry-Ig. Complement receptor 1-related gene/protein y (Crry) inhibits C3 convertase activity. The Crry used in the experiments was Crry-Ig, which is a recombinant soluble form of Crry fused to the hinge, CH2, and CH3 domains of mouse IgG1, prepared as described in Quigg et al., J Immunol 1998;160:4553-4560. Crry-Ig blocks activation of C3 by both the classical and alternative pathways, thereby preventing all complement effector activities. Pregnant DBA/2-mated CBA/J mice were treated with 3 mg Crry-Ig, administered i.p. on days 8, 10 and 12.
Monoclonal anti-C5 mAb. Also tested was an antibody against C5, which prevents the cleavage of C5. […]
To inhibit factor B, mice were injected on days 7 through 13 of pregnancy with mAb1379 (2 mg intraperitoneally) or with murine IgG as a control. Fetal resorption frequency was calculated on day 15 of pregnancy.

For experiment [2], the system named is pregnant mice treated with aPL-IgG. In words: aPL antibody-induced pregnancy loss, murine pregnancy model of APS.
For experiment [3], the system named is C3 deposition in decidual tissue. Nature of the experiment: Immunohistochemistry of deciduas (C3, human IgG, granulocytes). Conditions: aPL-IgG treated mice that also received the agent.
Description: (§1) Immunohistochemistry. […] Sections were counterstained with hematoxylin.
as §1

[4] abbreviates: mice given aPL-IgG 10 mg i.p. days 8 and 12 plus the agent.

Regarding “AcPhe(L-ornithine-Pro-D-cyclohexylalanine-Trp-Arg) [C5aR-AP]”, in experiment [1] (DBA/2-mated CBA/J mice, 100 μg i.p. on day 8, sacrificed day 15), the fetal resorption rate result was “about 7%”. Besides, the “fetal loss / pregnancy loss” value in experiment [1] (DBA/2-mated CBA/J mice, inhibitor i.p. during pregnancy, fetal resorption day 15) is “prevented fetal loss”. In experiment [1] (uterus from treated DBA/2-mated CBA/J mouse, day 15), the “fetuses and resorptions in uterus” value is 6 larger fetuses with decidua and no resorptions. For the same substance, in experiment [2] (setting [4]), the “aPL antibody-induced growth restriction” value is given as “prevented” and the “aPL antibody-induced pregnancy loss (fetal resorption)” value is “prevented”. Moreover, the “frequency of fetal resorption in the absence of aPL antibodies” value in experiment [2] (mice that received NH-IgG / no aPL antibodies) is listed as “had no effect”. Besides, in experiment [3], the “C3 deposition in decidual tissue” value is reported as “minimal C3 deposition” and the “neutrophil infiltration / inflammation in deciduas” value is recorded as “no evidence of inflammation”.

These data come from patent publication US20070123466A1, “Method of treating recurrent miscarriages” (New York Society for the Ruptured and Crippled Maintaining …, priority 2003, published 2007).
